Earlier results on four compounds are cited in patent US20050245504A1, “Treatment of diseases with combinations of alpha 7 Nicotinic Acetylcholine Receptor agonists and other compounds” (priority 2002, published 2005).

Structures are written as SMILES. Like-named read-outs stand apart in the source and are kept apart here.

One data set has as its target T1, 5HT3R (Homo sapiens, UniProt P46098).
T1 sequence (P46098 24-478): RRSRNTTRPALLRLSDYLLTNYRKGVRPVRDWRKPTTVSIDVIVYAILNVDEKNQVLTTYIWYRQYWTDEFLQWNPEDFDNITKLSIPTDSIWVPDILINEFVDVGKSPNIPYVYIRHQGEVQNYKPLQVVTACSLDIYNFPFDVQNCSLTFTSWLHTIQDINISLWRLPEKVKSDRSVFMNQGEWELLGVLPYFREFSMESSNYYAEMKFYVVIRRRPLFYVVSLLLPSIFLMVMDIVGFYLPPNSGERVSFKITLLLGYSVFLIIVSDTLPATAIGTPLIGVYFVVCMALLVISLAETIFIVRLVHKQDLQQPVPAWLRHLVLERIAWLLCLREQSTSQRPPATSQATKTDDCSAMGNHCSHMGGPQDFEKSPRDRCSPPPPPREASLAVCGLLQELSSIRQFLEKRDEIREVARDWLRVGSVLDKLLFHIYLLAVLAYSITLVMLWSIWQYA

A further data set has as its target α7 nAChR (Homo sapiens, UniProt P36544).

α7 nAChR, sequence (P36544 23-502): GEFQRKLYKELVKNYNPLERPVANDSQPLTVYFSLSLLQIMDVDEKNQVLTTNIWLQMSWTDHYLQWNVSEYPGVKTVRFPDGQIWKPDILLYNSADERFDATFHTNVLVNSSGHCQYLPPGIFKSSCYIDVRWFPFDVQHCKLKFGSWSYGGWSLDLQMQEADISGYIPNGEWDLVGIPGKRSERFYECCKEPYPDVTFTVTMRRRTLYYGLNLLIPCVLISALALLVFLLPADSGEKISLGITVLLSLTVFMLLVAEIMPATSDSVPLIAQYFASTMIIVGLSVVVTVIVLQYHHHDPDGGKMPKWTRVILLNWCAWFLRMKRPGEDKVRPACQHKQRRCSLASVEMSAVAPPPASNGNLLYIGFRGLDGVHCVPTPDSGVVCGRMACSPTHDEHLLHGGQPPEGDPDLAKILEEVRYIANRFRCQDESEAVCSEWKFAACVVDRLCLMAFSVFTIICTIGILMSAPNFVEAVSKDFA

As to `COc1ccc(/C=C2\CCCN=C2c2cccnc2)c(OC)c1` [GTS-21], the “activity at the 5HT3R” value at 5HT3R was “little activity”.

Regarding `Cc1nccn1CC1CCc2c(c3ccccc3n2C)C1=O` (stereo not shown) [Ondansetron], the “activity at the α7 nAChR” value on α7 nAChR was “little activity”.

For `CN1CCCC1c1cccnc1` (stereo not shown) [nicotine], under “human, in vivo”, the cognition and attention entry is “increases cognition and attention”.

Take `Cc1cc([C@@H]2CCCN2C)on1` [ABT-418]: for the setting “clinical trials of Alzheimer's disease and attention-deficit disorders”, the cognition and attention entry is “improves cognition and attention”.
